Data reported in patent publication US20240059747A1, “UBIQUITIN VARIANT WITH HIGH AFFINITY FOR BINDING 53BP1 REDUCES THE AMOUNT OF AAV NEEDED TO ACHIEVE HIGH RATES OF HDR” (Integrated DNA Technologies, Inc., priority 2022, published 2024).

What was measured:
HEK293 cells = experiment: percent HDR by EcoR1 cleavage assay, Cas9 RNP nucleofection with AAV donor, HEK293 cells; assay type: cell-based; settings: for dose dependence of HDR benefit: AAV donor at MOI 20,000, doses up to 200 μM
Procedure: FIG. 1C depicts an exemplary heatmap showing the percent HDR at SERPINC1 in K562 cells with and without 50 uM CM1tf. […] The heatmaps show the percent HDR measured by EcoR1 cleavage assay with and without the use of CM1tf. Cas9 RNP (2 μM) was delivered with and without CM1tf into cells by Lonza nucleofection using 4 μM Alt-R Cas9 Electroporation Enhancer. AAV donor containing an EcoR1 cut site insert with 500 bp homology arms was added at a range of multiplicity of infection (MOIs) to cells for 24 hours following RNP delivery.
FIG. 2B depicts an exemplary heatmap showing the percent HDR at SERPINC1 in HEK293 cells with no enhancer, CM1tf, V2, or CM1tf+V2. […] Cas9 RNP was co-delivered with and without CM1tf into cells by Lonza nucleofection with 2 μM Cas9 RNP, 4 μM Alt-R Cas9 Electroporation Enhancer, and 0 or 25 uM CM1tf. AAV donor containing an EcoR1 cut site insert with 500 bp homology arms was added at a range of MOIs to cells for 24 hours following RNP delivery. V2 enhancer was added to media at a 1 uM final concentration for 24 hours following nucleofection.
The heatmaps show the percent HDR at STAT3 measured by EcoR1 cleavage assay with or without CM1tf. Cas9 RNP was co-delivered with and without CM1tf into cells by Lonza nucleofection with 2 μM Cas9 RNP, 4 μM Alt-R Cas9 Electroporation Enhancer, and 0 or 25 uM CM1tf. AAV donor containing 500 base pair (bp), 300 bp, or 100 bp homology arms was added at a range of MOIs to cells for 24 hours following RNP delivery.
Cas9 RNP was co-delivered with and without CM1tf into cells by Lonza nucleofection with 2 μM Cas9 RNP, 4 μM Alt-R Cas9 Electroporation Enhancer, and range of CM1tf concentrations from 200 μM to 6.25 μM. AAV donor containing an EcoR1 cut site insert with 500 bp homology arms was added at an MOI of 20,000 to cells for 24 hours following RNP delivery.
We developed at tag-free version of CM1 (CM1tf) and tested its ability to enhance HDR in cell lines using AAV donor (see Table 1). AAV-DJ, a synthetic AAV serotype most closely related to AAV-2 that is a chimera of type 2/type 8/ and type 9, was chosen for testing due to its high transduction efficiency in vitro for a broad range of cell types. The dose of CM1tf was held constant while a range of MOIs was used for the AAV donor. The AAV donor was constructed such that a 6 base pair insert consisting of an EcoR1 cut site (GAATTC) was flanked by 500 base pairs of homology arm matching the genomic sequence on either side of the target cut site. Briefly, Cas9 V3 protein (IDT) and Alt-R sgRNA (IDT) were mixed at a 1:1.2 ratio, incubated for 10 min, then Alt-R Cas9 electroporation enhancer (EE) (IDT), 1× PBS (Gibco), and CM1tf, diluted in 1× PBS, were added. HEK293 or K562 cells were washed and resuspended in SF buffer for Lonza Nucleofection and added to the RNP+DNA mix such that the final concentration of Cas9 RNP was 2 μM, EE was 4 μM, and CM1tf was 25 μM (HEK293 cells) or 50 μM (K562 cells). Cells plus RNP+DNA were electroporated using program DS-150 (HEK293 cells) or FF-120 (K562 cells) using the Lonza nucleofector system. Cells were then plated in 96 well plates at 20,000 cells/well and AAV was added to the wells at a range of MOI from 0 (no virus) to 160,000, with MOI being calculated as viral genomes (vg) per cell with vg calculated using qPCR. Cells were recovered and plated with serum free media, AAV was added, then serum containing media was added after four hours. Genomic DNA was isolated 48 hours after RNP delivery using QuickExtract (Lucigen).
In order to optimize HDR, it is often desirable to use a combination of HDR enhancers that work by different mechanisms to further boost HDR rates beyond what can be achieved by any single enhancer alone.

HDR [1] = settings: ssDNA donor; previous testing; cited from earlier work
53BP1 foci = settings: introduced into cells; cited from earlier work
HDR [2] = settings: plasmid, AAV mediated gene delivery or mRNA delivery; double-stranded and single-stranded DNA donors; cited from earlier work
K562 cells = experiment: percent HDR by EcoR1 cleavage assay, Cas9 RNP nucleofection with AAV donor, K562 cells; assay type: cell-based; settings: 50 μM CM1tf, SERPINC1, AAV donor MOI range, FIG. 1C
Procedure: FIG. 1C depicts an exemplary heatmap showing the percent HDR at SERPINC1 in K562 cells with and without 50 uM CM1tf. In FIG. 1A-C, the ubiquitin variant CM1tf boosts HDR when delivered with Cas9 RNP when an AAV vector is used to deliver the donor template. The heatmaps show the percent HDR measured by EcoR1 cleavage assay with and without the use of CM1tf. Cas9 RNP (2 μM) was delivered with and without CM1tf into cells by Lonza nucleofection using 4 μM Alt-R Cas9 Electroporation Enhancer. AAV donor containing an EcoR1 cut site insert with 500 bp homology arms was added at a range of multiplicity of infection (MOIs) to cells for 24 hours following RNP delivery.
We developed at tag-free version of CM1 (CM1tf) and tested its ability to enhance HDR in cell lines using AAV donor (see Table 1). AAV-DJ, a synthetic AAV serotype most closely related to AAV-2 that is a chimera of type 2/type 8/ and type 9, was chosen for testing due to its high transduction efficiency in vitro for a broad range of cell types. The dose of CM1tf was held constant while a range of MOIs was used for the AAV donor. […] Cells were then plated in 96 well plates at 20,000 cells/well and AAV was added to the wells at a range of MOI from 0 (no virus) to 160,000, with MOI being calculated as viral genomes (vg) per cell with vg calculated using qPCR. […]

Substance | dose dependence of HDR benefit (HEK293 cells; FIG. 4) | benefit to HDR as a function of dose (HDR [1]) | optimal concentration for HDR benefit (HDR [1]) | formation of ionizing radiation induced 53BP1 foci (53BP1 foci) | rates of HDR (HDR [2]) | improvement in HDR rates, single enhancers and combination (HEK293 cells; 25 uM CM1tf, 1 μM V2 enhancer in media for 24 hours, AAV donor MOI range, HPRT1 and SERPINC1, FIG. 2) | boost of HDR rates (HEK293 cells; 25 μM CM1tf, AAV-DJ donor with 500 bp homology arms, MOI 0 to 160,000, HPRT1 and SERPINC1, FIG. 1A-B) | HDR boost compared with i53 (HEK293 cells; AAV donor at MOI 20,000, doses 6.25 to 200 μM, FIG. 4) | less AAV needed to achieve the same level of editing as without enhancer (HEK293 cells; HEK293 cells, 25 μM CM1tf, AAV donor MOI range) | boost of HDR (K562 cells)
i53: ubiquitin variant inhibitor of 53BP1 (Canny et al.), SEQ ID NO: 1 | large performance increase going from 100 μM to 200 μM | decrease in benefit at 200 μM | 100 to 150 µM | inhibited the formation ionizing radiation induced 53BP1 foci | improve the rates of HDR |  |  |  |  | 
CM1tf: tag-free version of ubiquitin variant CM1, SEQ ID NO: 3; K6R, T7M, T12M, T14E, K33H, A46Q, S65P, L67K, H68M relative to i53 | slightly larger benefit to HDR with increasing dose |  |  |  |  | approximately equivalent improvement in HDR rates | dramatically boosted HDR rates | continued to outperform i53 | approximately four-fold | boosts HDR
